From the supplement of paper PMC10307832

Experiments:
Experiment in all cases: relative viability (nuclei count vs DMSO), 5 days (fraction); higher = more cells survive
[1] = system: EMC-BAC-2
Outline: (§1)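 One day after seeding in 1536-well plates, lung cancer cell lines were dosed by pin tool. Dosing was either single-drug or a fixed anchor-drug dose plus five library-drug doses (not always all listed) in √10 steps. After 5 days, nuclei were stained in one fix-and-stain step and counted on 4× images, and relative viability is the nuclei count of treated wells over that of vehicle wells, given as the median of duplicate plates.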

[2] = system: SW 1573
Outline: as §1

[3] = system: EKVX
Outline: as §1

[4] = system: EPLC-272H
Outline: as §1

[5] = system: HCC-78
Outline: as §1

[6] = system: NCI-H322M
Outline: as §1

[7] = system: ChaGo-K-1
Outline: as §1

[8] = system: LCLC-103H
Outline: as §1

[9] = system: LU99A
Outline: as §1

[10] = system: PC-14
Outline: as §1

[11] = system: NCI-H2342
Outline: as §1

With O=c1cc(N2CCOCC2)oc2c(-c3cccc4c3sc3ccccc34)cccc12 + CC(=O)Nc1cccc(-n2c(=O)n(C3CC3)c(=O)c3c(Nc4ccc(I)cc4F)n(C)c(=O)c(C)c32)c1 [Trametinib] (partner 0.02 µM) the relative viability ([1]; first compound 0.01 µM) was 0.976, the relative viability ([1]; first compound 0.03162 µM) was 0.93 and the relative viability ([1]; first compound 0.1 µM) was 0.931. The relative viability ([1]; first compound 0.3162 µM) was 0.774, the relative viability ([1]; first compound 1 µM) was 0.865 and the relative viability ([2]; first compound 0.01 µM) was 0.501. For the same compound, the relative viability ([2]; first compound 0.03162 µM) was 0.594, the relative viability ([2]; first compound 0.1 µM) was 0.585 and the relative viability ([2]; first compound 0.3162 µM) was 0.603. It also gave a relative viability ([2]; first compound 1 µM) of 0.501, a relative viability ([3]; first compound 0.01 µM) of 0.299 and a relative viability ([3]; first compound 0.03162 µM) of 0.312. The relative viability ([3]; first compound 0.1 µM) was 0.337, the relative viability ([3]; first compound 0.3162 µM) was 0.321 and the relative viability ([3]; first compound 1 µM) was 0.303. It also gave a relative viability ([4]; first compound 0.01 µM) of 0.301, a relative viability ([4]; first compound 0.03162 µM) of 0.285 and a relative viability ([4]; first compound 0.1 µM) of 0.333. For the same compound, the relative viability ([4]; first compound 0.3162 µM) was 0.284, the relative viability ([4]; first compound 1 µM) was 0.279 and the relative viability ([5]; first compound 0.01 µM) was 0.801. The relative viability ([5]; first compound 0.03162 µM) was 0.699, the relative viability ([5]; first compound 0.1 µM) was 0.899 and the relative viability ([5]; first compound 0.3162 µM) was 0.806. For the same compound, the relative viability ([5]; first compound 1 µM) was 0.651, the relative viability ([6]; first compound 0.01 µM) was 0.494 and the relative viability ([6]; first compound 0.03162 µM) was 0.486. The relative viability ([6]; first compound 0.3162 µM) was 0.495, the relative viability ([6]; first compound 1 µM) was 0.494 and the relative viability ([7]; first compound 0.01 µM) was 0.845. For the same compound, the relative viability ([7]; first compound 0.03162 µM) was 0.958, the relative viability ([7]; first compound 0.1 µM) was 0.966 and the relative viability ([7]; first compound 0.3162 µM) was 0.893. It also gave a relative viability ([7]; first compound 1 µM) of 0.882, a relative viability ([8]; first compound 0.01 µM) of 0.712 and a relative viability ([8]; first compound 0.03162 µM) of 0.698. It also gave a relative viability ([8]; first compound 0.1 µM) of 0.678, a relative viability ([8]; first compound 0.3162 µM) of 0.652 and a relative viability ([8]; first compound 1 µM) of 0.663. For the same compound, the relative viability ([9]; first compound 0.01 µM) was 0.561, the relative viability ([9]; first compound 0.03162 µM) was 0.576 and the relative viability ([9]; first compound 0.1 µM) was 0.562. The relative viability ([9]; first compound 0.3162 µM) was 0.501, the relative viability ([9]; first compound 1 µM) was 0.541 and the relative viability ([10]; first compound 0.01 µM) was 0.843. It also gave a relative viability ([10]; first compound 0.03162 µM) of 0.744, a relative viability ([10]; first compound 0.1 µM) of 0.745 and a relative viability ([10]; first compound 0.3162 µM) of 0.775. For the same compound, the relative viability ([10]; first compound 1 µM) was 0.832, the relative viability ([11]; first compound 0.01 µM) was 0.728 and the relative viability ([11]; first compound 0.03162 µM) was 0.874. The relative viability ([11]; first compound 0.1 µM) was 0.928, the relative viability ([11]; first compound 0.3162 µM) was 0.962 and the relative viability ([11]; first compound 1 µM) was 0.833.
